In patent US6602220B1, “Miniature air-controlled drug selector and delivery device portable by small animals” (The Research Foundation of State University of New York, priority 2000, dated 2003):

Experiments:
neocortical neuron = assay: Single-cell recording with microdialysis drug delivery via minivalve, neocortex of freely moving rat; type: in vivo
Protocol: The experiment was performed on a freely moving rat which carried the minivalve 100 of the present invention on its head as illustrated in FIG. 1.

[1] = tested on: single neuron, in the hippocampus; assay: Single-cell recording/microdialysis study with minivalve, hippocampus of freely moving rat; type: in vivo
Description: Referring now to FIGS. 6a-6c, there is illustrated graphical data from a single-cell recording/microdialysis study performed with the minivalve 100 of the present invention. The recordings were made from the same single neuron, in the hippocampus of the freely moving rat 102 having the minivalve 100 mounted on its head, as illustrated in FIG. 1.

SMILES | effect on firing of a neocortical neuron, first drug perfusion (neocortical neuron; 500 μM NMDA via microdialysis probe, freely moving rat) | time to effect after the minivalve switch (neocortical neuron; 500 μM NMDA, first perfusion, switch from position 1 to position 2) [min] | effect on firing of a neocortical neuron, second delivery (neocortical neuron; second NMDA delivery after wash-out) | effect of third exposure (neocortical neuron; third NMDA exposure three hours later) | effect on firing of hippocampal neuron, subsequent application ([1]; NMDA application through the probe after the second ethanol delivery) | effect on cell firing in the neocortex (neocortical neuron; ethanol delivered via microdialysis for two minutes, freely moving rat) | time to effect after the minivalve was switched (neocortical neuron; ethanol, neocortex) | effect on firing of hippocampal neuron, first perfusion ([1]; first ethanol perfusion into hippocampus recording site) | time to effect after minivalve activation ([1]; first ethanol perfusion, hippocampus) | effect on firing of hippocampal neuron, second delivery ([1]; second ethanol delivery, same neuron)
CN[C@H](CC(=O)O)C(=O)O [NMDA] | brief firing rate increase at point D, followed by a silent period | ≤ 1 | ineffective | clear excitatory effects associated with an EEG seizure | initial firing rate increase, followed by electrical silence | – | – | – | – | –
CCO [ethanol] | – | – | – | – | – | instant cell firing suppressant effect | within one minute | suppressed the firing of the recorded neuron | as quickly as two minutes | ineffective
